Tests used:
Assay type in all cases: cell-based
E.coli [1] = test: Quantitative germ count (re-isolation, surface method) after inoculating the test preparation; conditions: Ausgangskeimzahl 2,7 x 10^5 KBE/ml
H.influenzae [2] = test: as above; conditions: Ausgangskeimzahl 2,8 x 10^5 KBE/ml
Summary of the method: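 Surviving germs were counted by the surface method: an aliquot was spiral-plated on Kochblut-Agar and incubated at 33±2°C for max. 4 Tage, giving re-isolated counts in KBE/ml with a detection limit of 100 KBE/ml. Initial germ counts were also set by spiral-plater surface plating. The H. influenzae strain was pretested biochemically for identity and purity.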

S.aureus [3] = test: as above; conditions: Ausgangskeimzahl 2,6 x 10^5 KBE/ml
Summary of the method: (§1)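 Test preparations were contaminated with ca. 10^5 CFU/ml of each strain, then sampled at 2, 6, 8, 24, 32, 48 and 72 h. Cells were centrifuged 10 min at 3000 rpm, washed in NaCl-peptone buffer, resuspended and spiral-plated on Caso agar at 33±2°C for max. 4 days. Detection limit was 100 CFU/ml.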

Sc. pneumoniae [4] = test: as above; conditions: Ausgangskeimzahl 3,7 x 10^5 KBE/ml
Summary of the method: as §1

P.aeruginosa [5] = test: as above; conditions: Ausgangskeimzahl 2,7 x 10^5 KBE/ml
Summary of the method: as §1

E.coli [6] = test: Qualitative examination: enrichment of the inoculated test preparation in broth
Summary of the method: (§2)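 Test preparations (5 ml) inoculated with ~10^5 CFU/ml; after 2, 6, 8, 24, 32, 48 and 72 h, centrifuged, washed and resuspended in NaCl-peptone buffer. 2 ml enriched in 20 ml Caso broth (Fildes medium for H. influenzae), incubated up to 4 days at 33±2°C; negative enrichment indicates elimination of inoculum.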

S.aureus [7] = test: as above
Summary of the method: as §2

S.epidermidis = test: as above
Summary of the method: as §2

Sc. pneumoniae [8] = test: as above
Summary of the method: as §2

H.influenzae [9] = test: as above
Summary of the method: as §2

P.aeruginosa [10] = test: as above
Summary of the method: as §2

CC1COc2c(N3CCN(C)CC3)c(F)cc3c(=O)c(C(=O)O)cn1c23 (stereo not shown) [Ofloxacin 0,3 Gew.-%, Ofloxacin, reference compound]
-: Ergebnis der Reisolierung qualitiativ (+/-) nach Anreicherung (E.coli [6]; 2 h after inoculation) | Ergebnis der Reisolierung qualitiativ (+/-) nach Anreicherung (E.coli [6]; 4 h after inoculation) | Ergebnis der Reisolierung qualitiativ (+/-) nach Anreicherung (E.coli [6]; 6 h after inoculation) | Ergebnis der Reisolierung qualitiativ (+/-) nach Anreicherung (E.coli [6]; 8 h after inoculation) | Ergebnis der Reisolierung qualitiativ (+/-) nach Anreicherung (E.coli [6]; 24 h after inoculation) | Ergebnis der Reisolierung qualitiativ (+/-) nach Anreicherung (E.coli [6]; 32 h after inoculation) | Ergebnis der Reisolierung qualitiativ (+/-) nach Anreicherung (E.coli [6]; 48 h after inoculation) | Ergebnis der Reisolierung qualitiativ (+/-) nach Anreicherung (E.coli [6]; 72 h after inoculation) | Ergebnis der Reisolierung qualitiativ (+/-) nach Anreicherung (S.aureus [7]; 8 h after inoculation) | Ergebnis der Reisolierung qualitiativ (+/-) nach Anreicherung (S.aureus [7]; 24 h after inoculation) | Ergebnis der Reisolierung qualitiativ (+/-) nach Anreicherung (S.aureus [7]; 32 h after inoculation) | Ergebnis der Reisolierung qualitiativ (+/-) nach Anreicherung (S.aureus [7]; 48 h after inoculation) | Ergebnis der Reisolierung qualitiativ (+/-) nach Anreicherung (S.aureus [7]; 72 h after inoculation) | Ergebnis der Reisolierung qualitiativ (+/-) nach Anreicherung (S.epidermidis; 8 h after inoculation) | Ergebnis der Reisolierung qualitiativ (+/-) nach Anreicherung (S.epidermidis; 24 h after inoculation) | Ergebnis der Reisolierung qualitiativ (+/-) nach Anreicherung (S.epidermidis; 32 h after inoculation) | Ergebnis der Reisolierung qualitiativ (+/-) nach Anreicherung (S.epidermidis; 48 h after inoculation) | Ergebnis der Reisolierung qualitiativ (+/-) nach Anreicherung (S.epidermidis; 72 h after inoculation) | Ergebnis der Reisolierung qualitiativ (+/-) nach Anreicherung (Sc. pneumoniae [8]; 2 h after inoculation) | Ergebnis der Reisolierung qualitiativ (+/-) nach Anreicherung (Sc. pneumoniae [8]; 6 h after inoculation) | Ergebnis der Reisolierung qualitiativ (+/-) nach Anreicherung (Sc. pneumoniae [8]; 8 h after inoculation) | Ergebnis der Reisolierung qualitiativ (+/-) nach Anreicherung (Sc. pneumoniae [8]; 24 h after inoculation) | Ergebnis der Reisolierung qualitiativ (+/-) nach Anreicherung (Sc. pneumoniae [8]; 32 h after inoculation) | Ergebnis der Reisolierung qualitiativ (+/-) nach Anreicherung (Sc. pneumoniae [8]; 48 h after inoculation) | Ergebnis der Reisolierung qualitiativ (+/-) nach Anreicherung (Sc. pneumoniae [8]; 72 h after inoculation) | Ergebnis der Reisolierung qualitiativ (+/-) nach Anreicherung (H.influenzae [9]; 2 h after inoculation) | Ergebnis der Reisolierung qualitiativ (+/-) nach Anreicherung (H.influenzae [9]; 4 h after inoculation) | Ergebnis der Reisolierung qualitiativ (+/-) nach Anreicherung (H.influenzae [9]; 6 h after inoculation) | Ergebnis der Reisolierung qualitiativ (+/-) nach Anreicherung (H.influenzae [9]; 8 h after inoculation) | Ergebnis der Reisolierung qualitiativ (+/-) nach Anreicherung (H.influenzae [9]; 24 h after inoculation) | Ergebnis der Reisolierung qualitiativ (+/-) nach Anreicherung (H.influenzae [9]; 32 h after inoculation) | Ergebnis der Reisolierung qualitiativ (+/-) nach Anreicherung (H.influenzae [9]; 48 h after inoculation) | Ergebnis der Reisolierung qualitiativ (+/-) nach Anreicherung (H.influenzae [9]; 72 h after inoculation) | Ergebnis der Reisolierung qualitiativ (+/-) nach Anreicherung (P.aeruginosa [10]; 2 h after inoculation) | Ergebnis der Reisolierung qualitiativ (+/-) nach Anreicherung (P.aeruginosa [10]; 6 h after inoculation) | Ergebnis der Reisolierung qualitiativ (+/-) nach Anreicherung (P.aeruginosa [10]; 8 h after inoculation) | Ergebnis der Reisolierung qualitiativ (+/-) nach Anreicherung (P.aeruginosa [10]; 24 h after inoculation) | Ergebnis der Reisolierung qualitiativ (+/-) nach Anreicherung (P.aeruginosa [10]; 32 h after inoculation) | Ergebnis der Reisolierung qualitiativ (+/-) nach Anreicherung (P.aeruginosa [10]; 48 h after inoculation) | Ergebnis der Reisolierung qualitiativ (+/-) nach Anreicherung (P.aeruginosa [10]; 72 h after inoculation)
<100 KBE/ml: Ergebnis der Reisolierung (in KBE/ml) (E.coli [1]; 2 h after inoculation) | Ergebnis der Reisolierung (in KBE/ml) (E.coli [1]; 4 h after inoculation) | Ergebnis der Reisolierung (in KBE/ml) (E.coli [1]; 6 h after inoculation) | Ergebnis der Reisolierung (in KBE/ml) (E.coli [1]; 8 h after inoculation) | Ergebnis der Reisolierung (in KBE/ml) (E.coli [1]; 24 h after inoculation) | Ergebnis der Reisolierung (in KBE/ml) (E.coli [1]; 32 h after inoculation) | Ergebnis der Reisolierung (in KBE/ml) (E.coli [1]; 48 h after inoculation) | Ergebnis der Reisolierung (in KBE/ml) (E.coli [1]; 72 h after inoculation) | Ergebnis der Reisolierung (in KBE/ml) (H.influenzae [2]; 2 h after inoculation) | Ergebnis der Reisolierung (in KBE/ml) (H.influenzae [2]; 4 h after inoculation) | Ergebnis der Reisolierung (in KBE/ml) (H.influenzae [2]; 6 h after inoculation) | Ergebnis der Reisolierung (in KBE/ml) (H.influenzae [2]; 8 h after inoculation) | Ergebnis der Reisolierung (in KBE/ml) (H.influenzae [2]; 24 h after inoculation) | Ergebnis der Reisolierung (in KBE/ml) (H.influenzae [2]; 32 h after inoculation) | Ergebnis der Reisolierung (in KBE/ml) (H.influenzae [2]; 48 h after inoculation) | Ergebnis der Reisolierung (in KBE/ml) (H.influenzae [2]; 72 h after inoculation) | Ergebnis der Reisolierung (in KBE/ml) (S.aureus [3]; 2 h after inoculation) | Ergebnis der Reisolierung (in KBE/ml) (S.aureus [3]; 4 h after inoculation) | Ergebnis der Reisolierung (in KBE/ml) (S.aureus [3]; 6 h after inoculation) | Ergebnis der Reisolierung (in KBE/ml) (S.aureus [3]; 8 h after inoculation) | Ergebnis der Reisolierung (in KBE/ml) (S.aureus [3]; 24 h after inoculation) | Ergebnis der Reisolierung (in KBE/ml) (S.aureus [3]; 32 h after inoculation) | Ergebnis der Reisolierung (in KBE/ml) (S.aureus [3]; 48 h after inoculation) | Ergebnis der Reisolierung (in KBE/ml) (S.aureus [3]; 72 h after inoculation) | Ergebnis der Reisolierung (in KBE/ml) (Sc. pneumoniae [4]; 2 h after inoculation) | Ergebnis der Reisolierung (in KBE/ml) (Sc. pneumoniae [4]; 4 h after inoculation) | Ergebnis der Reisolierung (in KBE/ml) (Sc. pneumoniae [4]; 6 h after inoculation) | Ergebnis der Reisolierung (in KBE/ml) (Sc. pneumoniae [4]; 8 h after inoculation) | Ergebnis der Reisolierung (in KBE/ml) (Sc. pneumoniae [4]; 24 h after inoculation) | Ergebnis der Reisolierung (in KBE/ml) (Sc. pneumoniae [4]; 32 h after inoculation) | Ergebnis der Reisolierung (in KBE/ml) (Sc. pneumoniae [4]; 48 h after inoculation) | Ergebnis der Reisolierung (in KBE/ml) (Sc. pneumoniae [4]; 72 h after inoculation) | Ergebnis der Reisolierung (in KBE/ml) (P.aeruginosa [5]; 2 h after inoculation) | Ergebnis der Reisolierung (in KBE/ml) (P.aeruginosa [5]; 4 h after inoculation) | Ergebnis der Reisolierung (in KBE/ml) (P.aeruginosa [5]; 6 h after inoculation) | Ergebnis der Reisolierung (in KBE/ml) (P.aeruginosa [5]; 8 h after inoculation) | Ergebnis der Reisolierung (in KBE/ml) (P.aeruginosa [5]; 24 h after inoculation) | Ergebnis der Reisolierung (in KBE/ml) (P.aeruginosa [5]; 32 h after inoculation) | Ergebnis der Reisolierung (in KBE/ml) (P.aeruginosa [5]; 48 h after inoculation) | Ergebnis der Reisolierung (in KBE/ml) (P.aeruginosa [5]; 72 h after inoculation)
+: Ergebnis der Reisolierung qualitiativ (+/-) nach Anreicherung (S.aureus [7]; 2 h after inoculation) | Ergebnis der Reisolierung qualitiativ (+/-) nach Anreicherung (S.aureus [7]; 4 h after inoculation) | Ergebnis der Reisolierung qualitiativ (+/-) nach Anreicherung (S.aureus [7]; 6 h after inoculation) | Ergebnis der Reisolierung qualitiativ (+/-) nach Anreicherung (S.epidermidis; 2 h after inoculation) | Ergebnis der Reisolierung qualitiativ (+/-) nach Anreicherung (S.epidermidis; 4 h after inoculation) | Ergebnis der Reisolierung qualitiativ (+/-) nach Anreicherung (S.epidermidis; 6 h after inoculation) | Ergebnis der Reisolierung qualitiativ (+/-) nach Anreicherung (Sc. pneumoniae [8]; 4 h after inoculation) | Ergebnis der Reisolierung qualitiativ (+/-) nach Anreicherung (P.aeruginosa [10]; 4 h after inoculation)
